Laboratory results as given in ChEMBL document CHEMBL3885861, “Open TG-GATES”.

Species on record: Rattus norvegicus
Experiment: Open TG-GATES - Regimen: Single
Format: toxicity, organism-based, Sprague-Dawley
Design: regimen Single, gender Male, age 6 weeks
Conditions: in vivo, po, route gavage; for APTT / Bas / Eos / Fbg / Hb / Ht / Lym / MCH / MCHC / MCV / Mono / Neu / PT / Plat / RBC / Ret / WBC: tissue Blood; for KIDNEY_L / KIDNEY_R / KIDNEY_TOTAL: tissue Kidney; for LIVER: tissue Liver; for A/G / ALP / ALT / AST / BUN / CRE / Ca / Cl / DBIL / GLC / IP / K / LDH / Na / PL / RALB / TBIL / TC / TG / TP / gamma-GTP: tissue Plasma
[1] = 0 mg/kg, 3 h, dose level Control
[2] = 0 mg/kg, 6 h, dose level Control
[3] = 0 mg/kg, 9 h, dose level Control
[4] = 0 mg/kg, 24 h, dose level Control

## CC1=C(CC(=O)O)c2cc(F)ccc2/C1=C\c1ccc([S+](C)[O-])cc1 (centres undefined)
[1]
  TERMINAL_BW: 203.6 g
  APTT: 20.8 s
  Bas: 0.2%
  Eos: 0.8%
  Fbg: 275 mg/dL
  Hb: 13.9 g/dL
  Ht: 42%
  Lym: 77.4%
  MCH: 21.5 pg
  MCHC: 33.1%
  MCV: 65.1 fL
  Mono: 2.8%
  Neu: 18.6%
  PT: 14.2 s
  Plat: 116.8 x10_4/uL
  RBC: 645.6 x10_4/ul
  Ret: 7.9%
  WBC: 80.3 x10_2/uL
  KIDNEY_L: 0.8 g
  KIDNEY_R: 0.9 g
  KIDNEY_TOTAL: 1.7 g
  LIVER: 9.3 g
  A/G: 0.9
  ALP: 1495.6 IU/L
  ALT: 41.6 IU/L
  AST: 79.8 IU/L
  BUN: 10.4 mg/dL
  CRE: 0.2 mg/dL
  Ca: 10.9 mg/dL
  Cl: 105.4 meq/L
  DBIL: 0.01 mg/dL
  GLC: 168 mg/dL
  IP: 8.7 mg/dL
  K: 3.9 meq/L
  LDH: 79.6 IU/L
  Na: 142.4 meq/L
  PL: 150.6 mg/dL
  RALB: 2.6 g/dL
  TBIL: 0.024 mg/dL
  TC: 80.8 mg/dL
  TG: 65.4 mg/dL
  TP: 5.4 g/dL
  gamma-GTP: 1 IU/L
[2]
  TERMINAL_BW: 197.1 g
  APTT: 17.8 s
  Bas: 0%
  Eos: 1%
  Fbg: 281.8 mg/dL
  Hb: 13.8 g/dL
  Ht: 42.2%
  Lym: 78.6%
  MCH: 20.7 pg
  MCHC: 32.8%
  MCV: 62.9 fL
  Mono: 2.8%
  Neu: 17%
  PT: 14.2 s
  Plat: 121.9 x10_4/uL
  RBC: 670.4 x10_4/ul
  Ret: 7.7%
  WBC: 78.4 x10_2/uL
  KIDNEY_L: 0.8 g
  KIDNEY_R: 0.9 g
  KIDNEY_TOTAL: 1.7 g
  LIVER: 8 g
  A/G: 0.9
  ALP: 1387.6 IU/L
  ALT: 38.2 IU/L
  AST: 72 IU/L
  BUN: 7.4 mg/dL
  CRE: 0.2 mg/dL
  Ca: 10.6 mg/dL
  Cl: 106.4 meq/L
  DBIL: 0.002 mg/dL
  GLC: 171.8 mg/dL
  IP: 9.5 mg/dL
  K: 4.1 meq/L
  LDH: 71.6 IU/L
  Na: 142 meq/L
  PL: 142 mg/dL
  RALB: 2.5 g/dL
  TBIL: 0.03 mg/dL
  TC: 83.6 mg/dL
  TG: 37.4 mg/dL
  TP: 5.2 g/dL
  gamma-GTP: 1.6 IU/L
[3]
  TERMINAL_BW: 198.3 g
  APTT: 16.6 s
  Bas: 0%
  Eos: 0.8%
  Fbg: 308.8 mg/dL
  Hb: 13.9 g/dL
  Ht: 42.5%
  Lym: 81.6%
  MCH: 21.1 pg
  MCHC: 32.7%
  MCV: 64.8 fL
  Mono: 2%
  Neu: 15%
  PT: 13.8 s
  Plat: 120.2 x10_4/uL
  RBC: 655.8 x10_4/ul
  Ret: 7.7%
  WBC: 58.8 x10_2/uL
  KIDNEY_L: 0.9 g
  KIDNEY_R: 0.9 g
  KIDNEY_TOTAL: 1.9 g
  LIVER: 7.9 g
  A/G: 1
  ALP: 1678 IU/L
  ALT: 36.8 IU/L
  AST: 70 IU/L
  BUN: 10 mg/dL
  CRE: 0.2 mg/dL
  Ca: 10.6 mg/dL
  Cl: 107.8 meq/L
  DBIL: 0.004 mg/dL
  GLC: 182 mg/dL
  IP: 10.1 mg/dL
  K: 4.3 meq/L
  LDH: 65.6 IU/L
  Na: 142.4 meq/L
  PL: 142 mg/dL
  RALB: 2.6 g/dL
  TBIL: 0.03 mg/dL
  TC: 83 mg/dL
  TG: 47.6 mg/dL
  TP: 5.3 g/dL
  gamma-GTP: 1 IU/L
[4]
  TERMINAL_BW: 215.3 g
  APTT: 16 s
  Bas: 0%
  Eos: 1%
  Fbg: 292.8 mg/dL
  Hb: 13.7 g/dL
  Ht: 42.7%
  Lym: 77.6%
  MCH: 21 pg
  MCHC: 32.2%
  MCV: 65.2 fL
  Mono: 2.8%
  Neu: 18.2%
  PT: 13.7 s
  Plat: 140.1 x10_4/uL
  RBC: 654.6 x10_4/ul
  Ret: 7.3%
  WBC: 87.2 x10_2/uL
  KIDNEY_L: 0.9 g
  KIDNEY_R: 0.9 g
  KIDNEY_TOTAL: 1.8 g
  LIVER: 9.8 g
  A/G: 0.9
  ALP: 1542 IU/L
  ALT: 49 IU/L
  AST: 74 IU/L
  BUN: 13.2 mg/dL
  CRE: 0.2 mg/dL
  Ca: 11 mg/dL
  Cl: 106.4 meq/L
  DBIL: 0.01 mg/dL
  GLC: 182.6 mg/dL
  IP: 7.3 mg/dL
  K: 4.1 meq/L
  LDH: 75 IU/L
  Na: 142.2 meq/L
  PL: 153 mg/dL
  RALB: 2.7 g/dL
  TBIL: 0.02 mg/dL
  TC: 83.2 mg/dL
  TG: 82.2 mg/dL
  TP: 5.5 g/dL
  gamma-GTP: 1 IU/L
15 mg/kg, 3 h, dose level Low
  TERMINAL_BW: 200.6 g
  APTT: 22.7 s
  Bas: 0%
  Eos: 1%
  Fbg: 290.6 mg/dL
  Hb: 13.4 g/dL
  Ht: 40.8%
  Lym: 74.8%
  MCH: 21.4 pg
  MCHC: 32.8%
  MCV: 65.3 fL
  Mono: 3%
  Neu: 21%
  PT: 14 s
  Plat: 130.1 x10_4/uL
  RBC: 625.6 x10_4/ul
  Ret: 8.8%
  WBC: 78.5 x10_2/uL
  KIDNEY_L: 1 g
  KIDNEY_R: 0.9 g
  KIDNEY_TOTAL: 1.9 g
  LIVER: 9.3 g
  A/G: 0.9
  ALP: 1384.2 IU/L
  ALT: 40.4 IU/L
  AST: 69.6 IU/L
  BUN: 11 mg/dL
  CRE: 0.2 mg/dL
  Ca: 10.9 mg/dL
  Cl: 105 meq/L
  DBIL: 0.01 mg/dL
  GLC: 173.2 mg/dL
  IP: 8.4 mg/dL
  K: 4 meq/L
  LDH: 66.8 IU/L
  Na: 140.8 meq/L
  PL: 140.6 mg/dL
  RALB: 2.6 g/dL
  TBIL: 0.036 mg/dL
  TC: 71.2 mg/dL
  TG: 65.6 mg/dL
  TP: 5.3 g/dL
  gamma-GTP: 1 IU/L
15 mg/kg, 6 h, dose level Low
  TERMINAL_BW: 201 g
  APTT: 16.5 s
  Bas: 0%
  Eos: 1%
  Fbg: 279.2 mg/dL
  Hb: 13.5 g/dL
  Ht: 41.4%
  Lym: 74%
  MCH: 20.8 pg
  MCHC: 32.6%
  MCV: 63.7 fL
  Mono: 2.4%
  Neu: 22.4%
  PT: 14.1 s
  Plat: 115.6 x10_4/uL
  RBC: 650.4 x10_4/ul
  Ret: 8.1%
  WBC: 70.2 x10_2/uL
  KIDNEY_L: 0.9 g
  KIDNEY_R: 0.9 g
  KIDNEY_TOTAL: 1.7 g
  LIVER: 8.2 g
  A/G: 1
  ALP: 1365.6 IU/L
  ALT: 41.4 IU/L
  AST: 72.4 IU/L
  BUN: 9 mg/dL
  CRE: 0.2 mg/dL
  Ca: 10.8 mg/dL
  Cl: 106.8 meq/L
  DBIL: 0.006 mg/dL
  GLC: 172.8 mg/dL
  IP: 9.3 mg/dL
  K: 4.3 meq/L
  LDH: 73.2 IU/L
  Na: 141.4 meq/L
  PL: 137.6 mg/dL
  RALB: 2.5 g/dL
  TBIL: 0.03 mg/dL
  TC: 78.6 mg/dL
  TG: 40 mg/dL
  TP: 5.2 g/dL
  gamma-GTP: 1.4 IU/L
15 mg/kg, 9 h, dose level Low
  TERMINAL_BW: 198.6 g
  APTT: 16.9 s
  Bas: 0%
  Eos: 0.8%
  Fbg: 285.6 mg/dL
  Hb: 13.2 g/dL
  Ht: 40.7%
  Lym: 81.4%
  MCH: 21 pg
  MCHC: 32.4%
  MCV: 64.8 fL
  Mono: 2%
  Neu: 15.2%
  PT: 14.2 s
  Plat: 128.1 x10_4/uL
  RBC: 627.6 x10_4/ul
  Ret: 8.8%
  WBC: 72.2 x10_2/uL
  KIDNEY_L: 0.9 g
  KIDNEY_R: 0.9 g
  KIDNEY_TOTAL: 1.8 g
  LIVER: 7.7 g
  A/G: 0.9
  ALP: 1238.2 IU/L
  ALT: 43.4 IU/L
  AST: 74.4 IU/L
  BUN: 10.6 mg/dL
  CRE: 0.2 mg/dL
  Ca: 10.7 mg/dL
  Cl: 108 meq/L
  DBIL: 0.008 mg/dL
  GLC: 173.6 mg/dL
  IP: 9.9 mg/dL
  K: 4.1 meq/L
  LDH: 65.2 IU/L
  Na: 142.2 meq/L
  PL: 135.4 mg/dL
  RALB: 2.5 g/dL
  TBIL: 0.042 mg/dL
  TC: 76.2 mg/dL
  TG: 37.6 mg/dL
  TP: 5.2 g/dL
  gamma-GTP: 1 IU/L
15 mg/kg, 24 h, dose level Low
  TERMINAL_BW: 215 g
  APTT: 22.5 s
  Bas: 0%
  Eos: 1%
  Fbg: 310.4 mg/dL
  Hb: 14 g/dL
  Ht: 43.7%
  Lym: 77.4%
  MCH: 21 pg
  MCHC: 32%
  MCV: 65.8 fL
  Mono: 2.2%
  Neu: 19%
  PT: 13.3 s
  Plat: 125.4 x10_4/uL
  RBC: 665.4 x10_4/ul
  Ret: 7.7%
  WBC: 81.5 x10_2/uL
  KIDNEY_L: 0.9 g
  KIDNEY_R: 0.9 g
  KIDNEY_TOTAL: 1.8 g
  LIVER: 10.4 g
  A/G: 0.9
  ALP: 1898.6 IU/L
  ALT: 48 IU/L
  AST: 70.2 IU/L
  BUN: 15.4 mg/dL
  CRE: 0.2 mg/dL
  Ca: 11.2 mg/dL
  Cl: 104.6 meq/L
  DBIL: 0.01 mg/dL
  GLC: 189.6 mg/dL
  IP: 7.4 mg/dL
  K: 4.2 meq/L
  LDH: 90.8 IU/L
  Na: 141 meq/L
  PL: 176.4 mg/dL
  RALB: 2.7 g/dL
  TBIL: 0.014 mg/dL
  TC: 95 mg/dL
  TG: 134.8 mg/dL
  TP: 5.7 g/dL
  gamma-GTP: 1 IU/L
